Source: patent publication US20190388411A1, “NSAID ADMINISTRATION AND RELATED COMPOSITIONS, METHODS AND SYSTEMS” (Alfasigma S.p.A., priority 2013, published 2019)

Experiments:
Format in all cases: in vivo, male Albino Sprague Dawley rats
[1] = Blood hemoglobin levels in indomethacin-induced enteropathy in rats (Example 16)
Description: Twenty four hours after the last dose, the rats were euthanized and samples of blood were collected for the assessment of hemoglobin levels.
Hemoglobin analysis was performed on rat blood samples collected as reported above, by means of Quantichrom Hemoglobin assay kit (Bioassay Systems, Hayward, Calif., USA) and expressed as g/dL.

[2] = tested on: indomethacin - induced microscopic intestinal damage; assay: Histological analysis of intestinal damage in jejunum and ileum (Example 16); conditions: rats
Description: (§1) The whole intestinal tract was removed and processed for the evaluation of tissue myeloperoxidase (MPO) levels and histological analysis of intestinal damage in jejunum and ileum.
Pharmacol. Ther. 1993; 7:29-39. Upon removal, the whole intestinal tract was immediately injected with 10% formalin and left in the same fixative solution. After 30 min, it was opened along the anti-mesenteric border, cleaned of fecal content and fixed in 10% formalin for 24 h. Tissue samples were taken as described below and the full length of small intestine was measured.
In particular the following tissue samples were taken • Ileum: 1 cm of tissue proximal to the ileo-cecal valve was discarded and two specimens of 1.5-2 cm of ileum were taken at this edge as well as 5 cm away from the first ileum sample • Proximal jejunum: two specimens of 1.5-2 cm were taken 5 cm away from both the proximal and distal end of the 37.5% of the small intestine total length. • Distal jejunum: two specimens of 1.5-2 cm were taken 5 cm away from both the proximal and distal end of 81% of small intestine's total length.
After fixation, tissues were embedded into paraffin blocks and were cut into consecutive serial 3-μm sections for staining with hematoxylin and eosin. Histological damage was assessed by two observers, blind to the treatment. Each section was given a score of lesion (Type 1 to 3) (TABLE 23).
Quantitative assessment of histological damage was expressed as percentage of the total length of lesions over the total length of the histological section.

[3] = Mortality in indomethacin-induced enteropathy in rats (Example 16); conditions: indomethacin […] BID + rifaximin product 50 mg/kg BID, 14 days
Description: A percentage of 100% of survivors was also recorded in vehicle control group (Group 1).

[4] = tested on: myeloperoxidase (MPO); assay: Tissue myeloperoxidase (MPO) levels in jejunum and ileum, ELISA (Example 16)
Description: as §1
Specimens of intestinal tissues (30 mg) were homogenized on ice with a polytron homogenizer (QIAGEN, Milan, Italy) in 0.6 mL of ice-cold lysis buffer (200 mM NaCl, 5 mM EDTA, 10 mM Tris, 10% glycerine, 1 mM PMSF, 1 μg/ml leupeptin and 28 μg/ml aprotinin (pH 7.4). The homogenate was centrifuged 2 times at 4° C. for 15 min at 1.500 g. The supernatant was diluted 1:5 and used for determination of MPO concentration by means of enzyme-linked immunosorbent assay (ELISA) (Hycult Biotech, Uden, Netherlands). All samples were assayed within 2 day after collection. The results were expressed as nanograms of MPO per milligram of intestinal tissue.

[5] = indomethacin […] BID 14 days, alone or with gastroresistant rifaximin 25 and 50 mg/kg BID or rifaximin polymorph alpha 50 mg/kg BID
[6] = rats, indomethacin […] BID 14 days, alone or with gastroresistant rifaximin 25 or 50 mg/kg BID or rifaximin polymorph alpha 50 mg/kg BID

Structure (SMILES) | Reduction in hemoglobin values ([1]; end of the treatment period (14 days), in respect to the control) [%] | Jejunum type 2 lesions, microscopic assessment (in words) [2, 5] | Mortality (%) [3] | Blood hemoglobin concentration (in words) ([1]; indomethacin […] BID 14 days, alone or with gastroresistant rifaximin at both doses or rifaximin polymorph alpha 50 mg/kg BID) | Reduction of MPO levels in respect to animals which did not receive rifaximin ([4]; rats treated with indomethacin, 14 days) | Ileum tissue MPO levels (in words) [4, 6] | Jejunum tissue MPO levels (in words) [4, 6] | Ileum type 1 lesions, microscopic assessment (in words) [2, 5] | Ileum type 2 lesions, microscopic assessment (in words) [2, 5] | Jejunum type 1 lesions, microscopic assessment (in words) [2, 5] | Lesions / histological damage in ileum and jejunum, overall (in words) ([2]; with indomethacin […] BID 14 days, gastroresistant rifaximin 25 and 50 mg/kg BID, rifaximin polymorph alpha 50 mg/kg BID)
CO[C@H]1/C=C/O[C@@]2(C)Oc3c(C)c(O)c4c(O)c(c5c(nc6cc(C)ccn65)c4c3C2=O)NC(=O)/C(C)=C\C=C\[C@H](C)[C@H](O)[C@@H](C)[C@@H](O)[C@@H](C)[C@H](OC(C)=O)[C@@H]1C [rifaximin, (2S, 16Z, 18E, 20S, 21S, 22R, 23R, 24R, 25S, 26S, 27S, 28E)-5,6, 21, 23, 25 pentahydroxy-27-methoxy-2,4, 11, 16, 20, 22, 24, 26-octamethyl-2,7-(epoxypentadeca-(1,11,13)trienimino) benzofuro (4,5-e) pyrido (1,2,-a benzimidazole-1,15(2H)dione, 25-acetate)] | 12 | significantly reduced Type 2 lesions | do not displayed death |  |  |  |  |  |  |  | 
CO[C@H]1/C=C/O[C@@]2(C)Oc3c(C)c(O)c4c(O)c(c5c(nc6cc(C)ccn65)c4c3C2=O)NC(=O)/C(C)=C\C=C\[C@H](C)[C@H](O)[C@@H](C)[C@@H](O)[C@@H](C)[C@H](OC(C)=O)[C@@H]1C [rifaximin polymorph alpha, rifaximin] |  |  | not associated with deaths | these levels were decreased | about 22% | blunted | did not exert any relevant effect | significant reduction of Type 1 lesions | no significant differences were appreciated on the occurrence of type 2 lesions | reduced the degree of type 1 lesions, although mean values were not significantly different | effective in the reduction of lesions
